Reference: patent US12098148B2, “Therapeutic compounds” (C4X Discovery Limited, priority 2018, dated 2024)

Key:
[1] = tested on: NQO1 mRNA in BEAS-2B cells; assay: Beas2B NQO1 mRNA cell based assay; design: species or system human; details: Homo sapiens, BEAS-2B, 24 h, 24 h compound treatment, increase in NQO1 mRNA vs vehicle (0.1% DMSO), read-out: EC50
Summary of the method: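 Relative NQO1 transcript level derived by ΔΔCT with human β-actin as internal control, using direct-lysate one-step RT-qPCR. Cells were BEAS-2B, plated overnight then treated with compound for 24 h.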

[2] = molecular target: human KEAP1 (N-term, residues 321-609) (Homo sapiens, UniProt Q14145); assay: biochemical;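 further: fluorescence polarization competition assay of Kelch domain binding to NRF2, 12-point 1:3 dilution series from 10 µM, read after 1 h at room temperature, floor 10 nM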
Sequence of human KEAP1 (N-term, residues 321-609) (Q14145 321-609): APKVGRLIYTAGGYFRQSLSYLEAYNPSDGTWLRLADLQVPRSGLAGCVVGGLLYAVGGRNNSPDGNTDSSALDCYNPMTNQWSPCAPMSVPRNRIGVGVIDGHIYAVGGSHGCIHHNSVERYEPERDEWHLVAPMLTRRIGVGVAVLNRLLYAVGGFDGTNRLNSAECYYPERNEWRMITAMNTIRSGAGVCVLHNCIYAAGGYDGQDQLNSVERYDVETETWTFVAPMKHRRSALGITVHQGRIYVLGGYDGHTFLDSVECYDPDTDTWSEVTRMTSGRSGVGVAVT

SMILES | IC50 [2] | EC50 [1]
Cc1nnc(COc2ccc(Cl)c3c2[C@@H](CN2CCCC2=O)N(C(=O)[C@@H]2CCCC[C@@H]2C(=O)O)CC3)n1C [Example 103, (1S,2R)-2-((S)-5-chloro-8-((4,5-dimethyl-4H-1,2,4-triazol-3-yl)methoxy)-1-((2-oxopyrrolidin-1-yl)methyl)-1,2,3,4-tetrahydroisoquinoline-2-carbonyl) cyclohexane-1-carboxylic acid] | 6.7 nM | 67 nM
COc1cc(COc2ccc(Br)c3c2[C@@H](CN2Cc4ccccc4C2=O)N(C(=O)[C@@H]2CCCC[C@@H]2C(=O)O)CC3)cc2nnn(C)c12 [Example 37, (1S,2R)-2-((S)-5-bromo-8-((7-methoxy-1-methyl-1H-benzo[d][1,2,3]triazol-5-yl)methoxy)-1-((1-oxoisoindolin-2-yl)methyl)-1,2,3,4-tetrahydroisoquinoline-2-carbonyl)cyclohexane-1-carboxylic acid] | 13 nM | 44 nM
O=C(NCCOc1cccc2c1[C@@H](CN1C(=O)c3ccccc3C1=O)N(C(=O)[C@@H]1CCCC[C@@H]1C(=O)O)CC2)c1nc2ccccc2o1 [Example 2, (1S,2R)-2-((S)-8-(2-(Benzo[d]oxazole-2-carboxamido)ethoxy)-1-((1,3-dioxoisoindolin-2-yl)methyl)-1,2,3,4-tetrahydroisoquinoline-2-carbonyl)cyclohexane-1-carboxylic acid] | 12 nM | 150 nM
Cn1nnc2cc(COc3ccc(Br)c4c3[C@@H](CN3Cc5ccccc5C3=O)N(C(=O)[C@@H]3CCCC[C@@H]3C(=O)O)CC4)ccc21 [Example 38, (1S,2R)-2-((S)-5-bromo-8-((1-methyl-1H-benzo[d][1,2,3]triazol-5-yl)methoxy)-1-((1-oxoisoindolin-2-yl)methyl)-1,2,3,4-tetrahydroisoquinoline-2-carbonyl)cyclohexane-1-carboxylic acid] | 9.3 nM | 17 nM
C[C@]1(C(=O)O)CCCC[C@H]1C(=O)N1CCc2c(Cl)ccc(OCc3nnn(CC(F)(F)F)c3C(F)F)c2[C@H]1CN1CCCC1=O [Example 155, (1S,2R)-2-((S)-5-chloro-8-((5-(difluoromethyl)-1-(2,2,2-trifluoroethyl)-1H-1,2,3-triazol-4-yl)methoxy)-1-((2-oxopyrrolidin-1-yl)methyl)-1,2,3,4-tetrahydroisoquinoline-2-carbonyl)-1-methylcyclohexane-1-carboxylic acid] | 16 nM | 4.8 nM
Cn1nnc(COc2ccc(Cl)c3c2[C@@H](CN2CC4(CC4)CC2=O)N(C(=O)[C@@H]2CCCC[C@]2(C)C(=O)O)CC3)c1C1CC1 [Example 159, (1S,2R)-2-((S)-5-chloro-8-((5-cyclopropyl-1-methyl-1H-1,2,3-triazol-4-yl)methoxy)-1-((6-oxo-5-azaspiro[2.4]heptan-5-yl)methyl)-1,2,3,4-tetrahydroisoquinoline-2-carbonyl)-1-methylcyclohexane-1-carboxylic acid] | 6.7 nM | 0.22 nM
O=C(O)[C@H]1CCCC[C@H]1C(=O)N1CCc2c(Cl)ccc(OCc3nccn3CC(F)(F)F)c2[C@H]1CN1Cc2ccccc2C1=O [Example 51, (1S,2R)-2-((S)-5-chloro-1-((1-oxoisoindolin-2-yl)methyl)-8-((1-(2,2,2-trifluoroethyl)-1H-imidazol-2-yl)methoxy)-1,2,3,4-tetrahydroisoquinoline-2-carbonyl)cyclohexane-1-carboxylic acid] | 10 nM | 110 nM
C[C@]1(C(=O)O)CCC[C@H]1C(=O)N1CCc2c(Cl)ccc(OCc3nnn4c3CCCC4)c2[C@H]1CN1CC2(CC2)CC1=O [Example 180, (1S,2R)-2-((S)-5-chloro-1-((6-oxo-5-azaspiro[2.4]heptan-5-yl)methyl)-8-((4,5,6,7-tetrahydro-[1,2,3]triazolo[1,5-a]pyridin-3-yl)methoxy)-1,2,3,4-tetrahydroisoquinoline-2-carbonyl)-1-methylcyclopentane-1-carboxylic acid] | 7.6 nM | 1.1 nM
Cn1nnc(COc2ccc(Cl)c3c2[C@@H](CN2CCCC2=O)N(C(=O)[C@@H]2CC4CCC2(C(=O)O)CC4)CC3)c1C(F)F [Example 141, (R)-2-((S)-5-chloro-8-((5-(difluoromethyl)-1-methyl-1H-1,2,3-triazol-4-yl)methoxy)-1-((2-oxopyrrolidin-1-yl)methyl)-1,2,3,4-tetrahydroisoquinoline-2-carbonyl)bicyclo[2.2.2]octane-1-carboxylic acid] | 7 nM | 35 nM
Cc1nc(COc2ccc(Br)c3c2[C@@H](CN2Cc4ccccc4C2=O)N(C(=O)[C@@H]2CCCC[C@@H]2C(=O)O)CC3)no1 [Example 24, (1S,2R)-2-((S)-5-Bromo-8-((5-methyl-1,2,4-oxadiazol-3-yl)methoxy)-1-((1-oxoisoindolin-2-yl)methyl)-1,2,3,4-tetrahydroisoquinoline-2-carbonyl)cyclohexane-1-carboxylic acid] | 9.1 nM | 41 nM

These reach a lower IC50 [2]. Values come first.

IC50 [2] | SMILES | EC50 [1]
5 nM | Cn1nnc(COc2ccc(Cl)c3c2[C@@H](CN2CC4(CC4)CC2=O)N(C(=O)[C@@H]2CC[C@H](O)C[C@]2(C)C(=O)O)CC3)c1C(F)F [Example 223, (1S,2R,5S)-2-((S)-5-chloro-8-((5-(difluoromethyl)-1-methyl-1H-1,2,3-triazol-4-yl)methoxy)-1-((6-oxo-5-azaspiro[2.4]heptan-5-yl)methyl)-1,2,3,4-tetrahydroisoquinoline-2-carbonyl)-5-hydroxy-1-methylcyclohexane-1-carboxylic acid] | 15 nM
5 nM | C[C@]1(C(=O)O)CCCC[C@H]1C(=O)N1CCc2c(Cl)ccc(OCc3nnn4c3COCC4)c2[C@H]1CN1CC2(CC2)CC1=O [Example 189, (1S,2R)-2-((S)-5-chloro-8-((6,7-dihydro-4H-[1,2,3]triazolo[5,1-c][1,4]oxazin-3-yl)methoxy)-1-((6-oxo-5-azaspiro[2.4]heptan-5-yl)methyl)-1,2,3,4-tetrahydroisoquinoline-2-carbonyl)-1-methylcyclohexane-1-carboxylic acid] | 0.27 nM
6 nM | C[C@]1(C(=O)O)CCCC[C@H]1C(=O)N1CCc2c(Cl)ccc(OCc3nnn(C4CC4)c3C(F)F)c2[C@H]1CN1CC2(CC2)CC1=O [Example 172, (1S,2R)-2-((S)-5-chloro-8-((1-cyclopropyl-5-(difluoromethyl)-1H-1,2,3-triazol-4-yl)methoxy)-1-((6-oxo-5-azaspiro [2.4]heptan-5-yl)methyl)-1,2,3,4-tetrahydroisoquinoline-2-carbonyl)-1-methylcyclohexane-1-carboxylic acid] | 1.1 nM
5.2 nM | Cn1nnc(COc2ccc(Br)c3c2[C@@H](CN2CCCC2=O)N(C(=O)[C@@H]2CCCC[C@]2(C)C(=O)O)CC3)c1C(F)(F)F [Example 191, (1S,2R)-2-((S)-5-bromo-8-((1-methyl-5-(trifluoromethyl)-1H-1,2,3-triazol-4-yl)methoxy)-1-((2-oxopyrrolidin-1-yl)methyl)-1,2,3,4-tetrahydroisoquinoline-2-carbonyl)-1-methylcyclohexane-1-carboxylic acid] | 2.1 nM
5.1 nM | CC(=O)N1CC[C@H](Oc2ccc(Br)c3c2[C@@H](CN2C(=O)c4ccccc4C2=O)N(C(=O)[C@@H]2CCCC[C@@H]2C(=O)O)CC3)C1 [Example 11, (1S,2R)-2-((S)-8-(((S)-1-Acetylpyrrolidin-3-yl)oxy)-5-bromo-1-((1,3-dioxoisoindolin-2-yl)methyl)-1,2,3,4-tetrahydroisoquinoline-2-carbonyl)cyclohexane-1-carboxylic acid] | 3.5 nM
5.1 nM | C[C@]1(C(=O)O)CCCC[C@H]1C(=O)N1CCc2c(F)ccc(OCc3nnn4c3CCCC4)c2[C@H]1CN1CC2(CC2)CC1=O [Example 182, (1S,2R)-2-((S)-5-fluoro-1-((6-oxo-5-azaspiro[2.4]heptan-5-yl)methyl)-8-((4,5,6,7-tetrahydro-[1,2,3]triazolo[1,5-a]pyridin-3-yl)methoxy)-1,2,3,4-tetrahydroisoquinoline-2-carbonyl)-1-methylcyclohexane-1-carboxylic acid] | 0.83 nM
6.1 nM | C[C@@H]1CC(=O)N(C[C@@H]2c3c(OCc4nnn(C)c4C(F)F)ccc(Cl)c3CCN2C(=O)[C@@H]2CCCC[C@]2(C)C(=O)O)C1 [Example 111, (1S)-2-((S)-5-Chloro-8-((5-(difluoromethyl)-1-methyl-1H-1,2,3-triazol-4-yl)methoxy)-1-1-(((R)-4-methyl-2-oxopyrrolidin-1-yl)methyl)-1,2,3,4-tetrahydroisoquinoline-2-carbonyl)-1-methylcyclohexane-1-carboxylic acid] | 2.5 nM
5.2 nM | Cn1c(COc2ccc(Cl)c3c2[C@@H](CN2CC4(CC4)CC2=O)N(C(=O)[C@@H]2CCCC[C@]2(C)C(=O)O)CC3)cccc1=O [Example 214, (1S,2R)-2-((S)-5-chloro-8-((1-methyl-6-oxo-1,6-dihydropyridin-2-yl)methoxy)-1-((6-oxo-5-azaspiro [2.4]heptan-5-yl)methyl)-1,2,3,4-tetrahydroisoquinoline-2-carbonyl)-1-methylcyclohexane-1-carboxylic acid] | 41 nM
4.2 nM | Cn1cnc(COc2ccc(Cl)c3c2[C@@H](CN2Cc4ccccc4C2=O)N(C(=O)[C@@H]2CCCC[C@@H]2C(=O)O)CC3)c1C(F)F [Example 56, (1S,2R)-2-((S)-5-Chloro-8-((5-(difluoromethyl)-1-methyl-1H-imidazol-4-yl)methoxy)-1-((1-oxoisoindolin-2-yl)methyl)-1,2,3,4-tetrahydroisoquinoline-2-carbonyl)cyclohexane-1-carboxylic acid] | 4.8 nM
